# Source: ChEMBL document CHEMBL1146905, “Synthesis and evaluation of phenoxy acetic acid derivatives as [corrected] anti-mycobacterial agents” (2006)
# What was measured:
# Format in all cases: functional
# [1] = test system: Mycobacterium tuberculosis; assay: Antimycobacterial activity against INH-resistant Mycobacterium tuberculosis by agar dilution method
# [2] = test system: Mycobacterium tuberculosis; assay: Antimycobacterial activity against INH-resistant Mycobacterium tuberculosis by agar dilution method at 6.25 ug/ml
# [3] = test system: Mycobacterium tuberculosis; assay: Antimycobacterial activity against INH-resistant Mycobacterium tuberculosis by agar dilution method above 6.25 ug/ml
Compound,MIC [1] [µg/mL],inhibition at 6.25 µg/mL [2] [%],Inhibition [3] [%]
COc1cc(C2=NN(C(=O)COc3ccccc3)C(c3ccc(O)cc3)C2)c(C)cc1OCC(=O)O (stereo not drawn),0.64,99,–
COc1cc(C2=NN(C(=O)COc3cccc4ccccc34)C(Cc3ccccc3)C2)c(C)cc1OCC(=O)O (stereo not drawn),> 6.25,–,20
COc1cc(C2=NN(C(=O)COc3ccccc3)C(Cc3ccccc3)C2)c(C)cc1OCC(=O)O (stereo not drawn),> 6.25,92,–
COc1cc(C2=NN(C(=O)c3ccccc3)C(c3ccc(O)cc3)C2)c(C)cc1OCC(=O)O (stereo not drawn),> 6.25,–,72
COc1cc(C2=NN(C(=O)COc3ccccc3)C3CCCC23)c(C)cc1OCC(=O)O (stereo not drawn),> 6.25,–,85
COc1cc(C2=NN(C(=O)COc3cccc4ccccc34)C3CCCC23)c(C)cc1OCC(=O)O (stereo not drawn),> 6.25,–,50
COc1cc(C2=NN(C(=O)COc3cccc4ccccc34)C(c3ccc(O)cc3)C2)c(C)cc1OCC(=O)O (stereo not drawn),> 6.25,–,58
COc1cc(C2=NN(C(=O)c3ccc([N+](=O)[O-])cc3)C3CCCC23)c(C)cc1OCC(=O)O (stereo not drawn),> 6.25,–,30
COc1cc(C2=NN(C(=O)COc3ccc4ccccc4c3)C(Cc3ccccc3)C2)c(C)cc1OCC(=O)O (stereo not drawn),0.94,90,–
COc1cc(C2=NN(C(=O)c3ccccc3)C3CCCC23)c(C)cc1OCC(=O)O (stereo not drawn),> 6.25,–,42
COc1cc(C2=NN(C(=O)COc3ccc4ccccc4c3)C3CCCC23)c(C)cc1OCC(=O)O (stereo not drawn),6.25,–,94
COc1cc(C2=NN(C(=O)c3ccc([N+](=O)[O-])cc3)C(Cc3ccccc3)C2)c(C)cc1OCC(=O)O (stereo not drawn),> 6.25,–,50
COc1cc(C2=NN(C(=O)Cc3ccccc3)C3CCCC23)c(C)cc1OCC(=O)O (stereo not drawn),> 6.25,–,24
COc1cc(C2=NN(C(=O)Cc3ccccc3)C(c3ccc(O)cc3)C2)c(C)cc1OCC(=O)O (stereo not drawn),> 6.25,–,22
COc1cc(C2=NN(C(=O)c3ccccc3)C(Cc3ccccc3)C2)c(C)cc1OCC(=O)O (stereo not drawn),> 6.25,–,18
COc1cc(C2=NN(C(=O)COc3ccc4ccccc4c3)C(c3ccc(O)cc3)C2)c(C)cc1OCC(=O)O (stereo not drawn),0.7,99,–
COc1cc(C2=NN(C(=O)Cc3ccccc3)C(Cc3ccccc3)C2)c(C)cc1OCC(=O)O (stereo not drawn),> 6.25,–,34
COc1cc(C2=NN(C(=O)c3ccc([N+](=O)[O-])cc3)C(c3ccc(O)cc3)C2)c(C)cc1OCC(=O)O (stereo not drawn),6.25,–,70
NNC(=O)c1ccncc1 [ISONIAZID],1.56,90,–
